The term IC50 denotes the concentration at which inhibition is half-maximal. The low end stands for inhibition by little substance, the high end for a need for much substance.

The experiment deals with C-C chemokine receptor type 2 (Homo sapiens, UniProt P41597). As to the kind of experiment: Inhibition of CCR2.
Chain of C-C chemokine receptor type 2 (P41597 whole entry): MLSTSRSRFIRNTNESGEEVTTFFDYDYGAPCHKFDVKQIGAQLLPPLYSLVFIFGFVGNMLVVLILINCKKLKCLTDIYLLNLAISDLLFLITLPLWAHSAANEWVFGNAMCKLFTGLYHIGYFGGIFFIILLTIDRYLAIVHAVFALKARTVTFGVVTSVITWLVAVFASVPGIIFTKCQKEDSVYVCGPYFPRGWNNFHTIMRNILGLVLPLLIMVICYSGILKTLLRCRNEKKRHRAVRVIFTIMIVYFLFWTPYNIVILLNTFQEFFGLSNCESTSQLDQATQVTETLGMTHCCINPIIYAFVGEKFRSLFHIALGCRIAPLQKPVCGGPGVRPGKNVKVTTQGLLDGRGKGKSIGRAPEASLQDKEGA
`COC(=O)[C@H](Cc1cnc[nH]1)NC(=O)CCc1cc(-c2cc(Cl)cc(Cl)c2)nn1-c1ccc2ccccc2c1` showed an IC50 of 2.84 µM.

`O=C(CCc1cc(-c2cc(Cl)cc(Cl)c2)nn1-c1ccc2ccccc2c1)NCCCc1ccc2c(n1)NCCC2`: the half-maximal inhibitory concentration (IC50) was 9.33 µM.

`O=C(CCc1cc(-c2cc(Cl)cc(Cl)c2)nn1-c1ccc2ccccc2c1)NCCCc1ccncc1`: half-maximal inhibition (IC50) was put at 1.12 µM.

As to `CN(C)CCCCNC(=O)CCc1cc(-c2cc(Cl)cc(Cl)c2)nn1-c1ccc2ccccc2c1`, half-maximal inhibition (IC50) was put at 1.8 µM.

For the compound `CCN(CC)CCCCNC(=O)CCc1cc(-c2cc(Cl)cc(Cl)c2)nn1-c1ccc2ccccc2c1`, the midpoint of inhibition, the IC50, lay at 1.22 µM.

Compound `CCN(CC)C(C)CCCNC(=O)CCc1cc(-c2cc(Cl)cc(Cl)c2)nn1-c1ccc2ccccc2c1` (centres undefined) showed an IC50 of 0.108 µM.

`COC(=O)[C@H](CCCN=C(N)N)NC(=O)CCNCc1cc(-c2cc(Cl)cc(Cl)c2)nn1-c1ccc2ccccc2c1` had an IC50 of 0.043 µM.

Regarding `CCN(CC)CCCC(C)NC(=O)CCCc1cc(-c2cc(Cl)cc(Cl)c2)nn1-c1ccc2ccccc2c1` (centres undefined), the IC50 was 6.47 µM.

On to `CCCCC(CCCN(CC)CC)NC(=O)CCOc1cc(-c2cc(Cl)cc(Cl)c2)nn1-c1ccc2ccccc2c1` (centres undefined), for which the IC50 is 0.052 µM.

For the origin of these results see ChEMBL document CHEMBL1208675, “Validated QSAR analysis of some diaryl substituted pyrazoles as CCR2 inhibitors by various linear and nonlinear multivariate chemometrics methods” (Eur J Med Chem, 2010).
